The target in one assay is TNFα (Homo sapiens (Human), UniProt P01375). In words: TNFα binding assay (time-resolved FRET, biotinylated TNFα). As to conditions: 1 nM biotinylated TNFα, 80 nM probe, 16 hr incubation; read-out: TNF-HTRF-biotin. How it is done: TNFα binding was measured in black 96-well plates using a time-resolved FRET assay using a previously described fluorescence acceptor TNFα probe (Xiao et al J. Med. Chem. 2020). Biotinylated TNFα was purchased from Acro Biosystems. Binding reactions were conducted in 20 mM Hepes (pH 7.5) 10 mM MgCl2 0.015% Tween-20 0.05 mg/ml BSA 2% DMSO with 1 nM TNFα 0.5 nM Streptavidin-Tb and 80 nM probe. Test compounds were resuspended in DMSO and 3-fold serial dilutions were made at 100× final concentrations. Fluorescence was measured using λex=340 nm, λem=490, 520 nm on an SpectraMax M5e plate reader (Molecular Devices) after 16 hr incubation time. Dose responses were conducted in duplicate and normalized to the response with DMSO (high) and 100 nM (R)-3-(1-((3-chloro-7-fluoro-6-(2-(2-hydroxypropan-2-yl)pyrimidin-5-yl)-2-methyl-1,5-naphthyridin-4-yl)amino)ethyl)-4-fluorobenzonitrile (low) on each plate. IC50 values were determined by fitting to 4-parameter curves in GraphPad Prism.
A general note: In TR-FRET formats the signal depends on donor and acceptor labels being close together.

In assay [1] the target is T1, folate receptor beta (Homo sapiens (Human), UniProt P14207). The assay is described as follows: Folate receptor binding assay (fluorescence polarization). Particulars: 2.5 nM folate receptor beta, 2 nM FR-Cy probe, 2 hr incubation; read-out: FOLR2-FP. How it is done:
Folate receptor binding was measured in black 96-well plates using a fluorescence polarization assay. A fluorescent probe consisting of a folate analog linked to Cy5 (FR-Cy) was custom synthesized.
Test compounds were resuspended in DMSO and 3-fold serial dilutions were made from 300-0.015 μM (100× final concentrations). Binding reactions were conducted in 200 μl final volume in 20 mM Hepes (pH 7.5) 250 mM NaCl 0.0150 Tween-20 1% DMSO with 2.5 nM folate receptor beta (Acro Biosystems) and 2 nM probe. Fluorescence polarization was measured using λex=620 nm, λem=688 nm on an Envision plate reader (Perkin Elmer) after 2 hr incubation time. Dose responses were conducted in duplicate and normalized to the response with DMSO (high) and 1 μM folic acid (low) on each plate. IC50 values were determined by fitting to 4-parameter curves in GraphPad Prism.

Assay [2] deals with T1, folate receptor beta. The assay is described as follows: Folate receptor SPR assay (biotinylated folate receptor beta on streptavidin chip). Particulars: for Rmax: biotinylated folate receptor beta on streptavidin chip; for kd / Kd / kon: multi-cycle kinetics, 25° C., 1:1 model; for Kd: read-out: FOLR2Biotin - SPR Kd; for kon: pH 7.5, read-out: ka. The assay is classed as binding. How it is done: Folate receptor SPR binding assays were conducted on a Biacore 8K instrument (Cytiva) using biotinylated folate receptor beta (Acro Biosystems). Briefly, folate receptor was immobilized at -550 RU on a streptavidin chip (Cytiva) in 10 mM HEPES pH 7.5, 150 mM NaCl, 0.05% Tween 20. Multi-cycle kinetic studies were conducted with 8 compound concentrations using 2-fold dilutions in 10 mM HEPES pH 7.5, 150 mM NaCl, 0.05% Tween 20, 2% DMSO at 25° C. A flow rate or 75 μl/mmn with an association time of 120 s and a dissociation time of 600 s were used. Surfaces were regenerated with 4 M MgCl2 at 30 μl/min for 30 s. Data were fit to a 1:1 model to determine the reported binding parameters.

The target of assay [3] is TNFα and streptavidin immobilized FOL2R (Homo sapiens (Human), UniProt P01375+P14207). In words: Ternary complex SPR assay. In kind it is binding. Particulars: 10 nM compound, max response normalized to expected response; for TC 150 nM- tagless TNF Normalized: 150 nM untagged TNF; for TC 300 nM- tagless TNF Normalized: 300 nM untagged TNF. How it is done:
Folate receptor-TNFα ternary complex SPR assays were conducted on a Biacore 8K instrument (Cytiva) using biotinylated folate receptor beta (Acro Biosystems). Folate receptor was immobilized at -1800 RU on a streptavidin chip (Cytiva) in 10 mM HEPES pH 7.5, 150 mM NaCl, 0.05% Tween 20. Untagged TNF was preincubated with 10 nM compound for 6 hr in 10 mM HEPES pH 7.5, 150 mM NaCl, 0.05 Tween 20, 2% DMSO at 25° C. Samples were then injected over the folate receptor surface at 30 μl/min with an association time of 110 s and a dissociation time of 600 s. Surfaces were regenerated with 4 M MgCl2 at 30 μl/mm for 30 s. The maximum measured response was normalized by comparison to the maximum expected response for each compound.
A general note: Surface plasmon resonance follows binding to a sensor surface in real time, without labels.

As usually defined, the Kd is the concentration at which binding is half-saturated.

T1 sequence (P14207 17-255): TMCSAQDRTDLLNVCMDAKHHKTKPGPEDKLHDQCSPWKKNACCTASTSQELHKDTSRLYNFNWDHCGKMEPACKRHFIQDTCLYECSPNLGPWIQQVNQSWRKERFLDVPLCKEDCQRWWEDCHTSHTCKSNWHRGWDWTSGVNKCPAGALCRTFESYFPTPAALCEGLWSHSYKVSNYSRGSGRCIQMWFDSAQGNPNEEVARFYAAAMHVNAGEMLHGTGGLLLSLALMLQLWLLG
Chain of TNFα and streptavidin immobilized FOL2R (P14207 17-230): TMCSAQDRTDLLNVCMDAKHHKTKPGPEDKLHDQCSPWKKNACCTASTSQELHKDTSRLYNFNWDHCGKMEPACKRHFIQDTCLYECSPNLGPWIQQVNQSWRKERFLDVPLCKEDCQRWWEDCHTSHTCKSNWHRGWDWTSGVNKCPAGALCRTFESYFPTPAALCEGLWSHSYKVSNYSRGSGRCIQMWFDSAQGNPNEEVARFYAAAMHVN
Chain of TNFα and streptavidin immobilized FOL2R (P01375 77-233): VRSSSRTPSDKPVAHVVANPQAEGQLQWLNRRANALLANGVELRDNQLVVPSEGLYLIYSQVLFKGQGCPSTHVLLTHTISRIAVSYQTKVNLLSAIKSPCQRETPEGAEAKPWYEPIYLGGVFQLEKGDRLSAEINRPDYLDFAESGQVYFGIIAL
Chain of TNFα (P01375 77-233): as above

With `Cc1nc2cc(F)c(-c3cnc(N4CCN(C(=O)COCCn5cc(CN(C)CCOCCOCCOCCNC(=O)CC[C@H](NC(=O)c6ccc(NCc7cnc8nc(N)nc(O)c8n7)cc6)C(=O)O)nn5)CC4)nc3)nc2c(N[C@H](C)c2cc(C#N)ccc2F)c1Cl` [Compound I-94, (S)-18-(4-(((2-amino-4-hydroxypteridin-6-yl)methyl)amino)benzamido)-1-(1-(2-(2-(4-(5-(7-chloro-8-(((R)-1-(5-cyano-2-fluorophenyl)ethyl)amino)-3-fluoro-6-methyl-1,5-naphthyridin-2-yl)pyrimidin-2-yl)piperazin-1-yl)-2-oxoethoxy)ethyl)-1H-1,2,3-triazol-4-yl)-2-methyl-15-oxo-5,811-trioxa-2,14-diazanonadecan-19-oic acid], the IC50 at TNFα turned out to be 22 nM. The IC50 on folate receptor beta [1] is 9.3 nM. For the same compound, at folate receptor beta [2], the Rmax is 15.4 RU, the kd was 0.000169 s⁻¹, the Kd turned out to be 0.0194 nM and the kon was found to be 8.72e+06 M⁻¹ s⁻¹. Besides, in assay [3], the “TC 150 nM- tagless TNF Normalized” value turned out to be 16.3% and the “TC 300 nM- tagless TNF Normalized” value is reported as 18.5%.

Consider `Cc1nc2cc(F)c(-c3cnc(N4CCN(C(=O)COCCn5cc(COCCOCCOCCOCCNC(=O)CCCNC(=O)c6ccc(NCc7cnc8nc(N)nc(O)c8n7)cc6)nn5)CC4)nc3)nc2c(N[C@H](C)c2cc(C#N)ccc2F)c1Cl` [Compound I-96, (R)-4-(((2-amino-4-hydroxypteridin-6-yl)methyl)amino)-N-(1-(1-(2-(2-(4-(5-(7-chloro-8-((1-(5-cyano-2-fluorophenyl)ethyl)amino)-3-fluoro-6-methyl-1,5-naphthyridin-2-yl)pyrimidin-2-yl)piperazin-1-yl)-2-oxoethoxy)ethyl)-1H-1,2,3-triazol-4-yl)-15-oxo-2,5,8,11-tetraoxa-14-azaoctadecan-18-yl)benzamide], for which the IC50 on TNFα is 56 nM. Also, at folate receptor beta [1], the IC50 was found to be 20 nM. On folate receptor beta [2], the Rmax is reported as 17.1 RU, the kd came to 0.00129 s⁻¹, the Kd is 0.101 nM and the kon is 1.27e+07 M⁻¹ s⁻¹. The “TC 60 nM taggless TNF normalized” value in assay [3] (60 nM untagged TNF) is recorded as 12.3%. In assay [3], the “TC 150 nM- tagless TNF Normalized” value worked out at 17.1% and the “TC 300 nM- tagless TNF Normalized” value was 19.2%.

As for `Cc1nc2cc(F)c(-c3cnc(N4CCN(C(=O)COCCn5cc(CN(CCO)CCOCCOCCOCCNC(=O)CC[C@H](NC(=O)c6ccc(NCc7cnc8nc(N)nc(O)c8n7)cc6)C(=O)O)nn5)CC4)nc3)nc2c(N[C@H](C)c2cc(C#N)ccc2F)c1Cl` [Compound I-93, (S)-19-(4-(((2-amino-4-hydroxypteridin-6-yl)methyl)amino)benzamido)-3-((1-(2-(2-(4-(5-(7-chloro-8-(((R)-1-(5-cyano-2-fluorophenyl)ethyl)amino)-3-fluoro-6-methyl-1,5-naphthyridin-2-yl)pyrimidin-2-yl)piperazin-1-yl)-2-oxoethoxy)ethyl)-1H-1,2,3-triazol-4-yl)methyl)-1-hydroxy-16-oxo-6,9,12-trioxa-3,15-diazaicosan-20-oic acid], the IC50 at TNFα is 18 nM. The IC50 on folate receptor beta [1] is 6.6 nM. In addition, on folate receptor beta [2], the Rmax was found to be 17.7 RU, the kd was 0.000178 s⁻¹, the Kd was found to be 0.0109 nM and the kon was 1.63e+07 M⁻¹ s⁻¹. Also, in assay [3], the “TC 150 nM- tagless TNF Normalized” value amounted to 16.1% and the “TC 300 nM- tagless TNF Normalized” value worked out at 18.2%.

With `Cc1nc2cc(F)c(-c3cnc(N4CCN(C(=O)COCCn5cc(COCCOCCOCCN6CCN(C(=O)CC[C@H](NC(=O)c7ccc(NCc8cnc9nc(N)nc(O)c9n8)cc7)C(=O)O)CC6)nn5)CC4)nc3)nc2c(N[C@H](C)c2cc(C#N)ccc2F)c1Cl` [Compound I-95, (S)-2-(4-(((2-amino-4-hydroxypteridin-6-yl)methyl)amino)benzamido)-5-(4-(2-(2-(2-((1-(2-(2-(4-(5-(7-chloro-8-(((R)-1-(5-cyano-2-fluorophenyl)ethyl)amino)-3-fluoro-6-methyl-1,5-naphthyridin-2-yl)pyrimidin-2-yl)piperazin-1-yl)-2-oxoethoxy)ethyl)-1H-1,2,3-triazol-4-yl)methoxy)ethoxy)ethoxy)ethyl)piperazin-1-yl)-5-oxopentanoic acid], at TNFα, the IC50 amounted to 26 nM. In addition, the IC50 on folate receptor beta [1] turned out to be 11 nM. For the same compound, on folate receptor beta [2], the Rmax amounted to 14.8 RU, the kd was found to be 0.000337 s⁻¹, the Kd was found to be 0.0215 nM and the kon stood at 1.56e+07 M⁻¹ s⁻¹. Also, in assay [3], the “TC 150 nM- tagless TNF Normalized” value is 17.3% and the “TC 300 nM- tagless TNF Normalized” value worked out at 18.6%.

As for `Cc1nc2cc(F)c(-c3cnc(N4CCN(C(=O)COCCn5cc(CCCN6CCC7(CC6)CCN(C(=O)CC[C@H](NC(=O)c6ccc(NCc8cnc9nc(N)nc(O)c9n8)cc6)C(=O)O)CC7)nn5)CC4)nc3)nc2c(N[C@H](C)c2cc(C#N)ccc2F)c1Cl` [Compound I-90, (S)-2-(4-(((2-amino-4-hydroxypteridin-6-yl)methyl)amino)benzamido)-5-(9-(3-(1-(2-(2-(4-(5-(7-chloro-8-(((R)-1-(5-cyano-2-fluorophenyl)ethyl)amino)-3-fluoro-6-methyl-1,5-naphthyridin-2-yl)pyrimidin-2-yl)piperazin-1-yl)-2-oxoethoxy)ethyl)-1H-1,2,3-triazol-4-yl)propyl)-3,9-diazaspiro[5.5]undecan-3-yl)-5-oxopentanoic acid], at TNFα, the IC50 stood at 7.6 nM. At folate receptor beta [1], the IC50 was determined as 4.4 nM. In addition, at folate receptor beta [2], the Rmax worked out at 13.3 RU, the kd was 0.00013 s⁻¹, the Kd was 0.00496 nM and the kon worked out at 2.62e+07 M⁻¹ s⁻¹. Besides, in assay [3], the “TC 150 nM- tagless TNF Normalized” value was 20.4% and the “TC 300 nM- tagless TNF Normalized” value was 20.6%.
